Data from patent US6770587B1, “Chain extended functionalized initiators and methods of preparing and using the same” (FMC Corporation, priority 2000, dated 2004).

Assays:
[1] = Solubility of initiator in cyclohexane with isoprene added as chain extension agent; type: physicochemical; details: for solubility, Moles Active/Kg. / solubility, Moles Active/Liter: cyclohexane
Method: For example, the solubility of 3-(1,1-dimethylethoxy)-1-propyllithium was investigated in cyclohexane at 0° C., with various amounts of isoprene added as a chain extension agent. The solubility data is collected in the table below:
A similar impact on the solubility of 3-(hexamethyleneimino)-1-propyllithium in cyclohexane was obtained with the addition of limited amounts of isoprene.
A one-liter three-necked Morton flask was equipped with a mechanical stirrer, Claisen adapter with an ice condenser and gas inlet, and a 250 milliliter pressure-equalizing dropping funnel. This apparatus was dried in an oven overnight at 125° C., assembled hot, and allowed to cool to room temperature in a stream of argon. Lithium metal dispersion was washed free of mineral oil with hexane (2×100 ml) and pentane (1×100 ml). The resultant lithium dispersion was dried in a stream of argon, weighed (13.90 grams, 2.00 moles, 2.80 equivalents), and transferred to the reaction flask with 400 ml of cyclohexane. The mechanical stirrer was set at an agitation rate of 500 RPMs, and the reaction mixture was heated to 80° C. with a heating mantle. The heat source was removed. The dropping funnel was charged with 107.82 grams (0.72 moles, 1.00 equivalent) of the precursor. The precursor was added dropwise, at an approximate rate of 0.71 ml/min. The reaction temperature was maintained at 70° C. with a dry ice/hexane bath. The total halide feed time was 162 minutes. The reaction mixture was allowed to stir for one hour post-feed, and maintained at a temperature of 70° C. with a heating mantle. Then isoprene, 98.20 grams ([…], […] of isoprene) was added at a feed rate of approximately 2.55 ml/min. The temperature was maintained at 62.5° C. during and after the feed. The reaction stirred for two hours before it was cooled to room temperature and filtered through a medium porosity pressure filter. The lithium muds were washed with cyclohexane (1×50 ml). The filtration took 15 minutes. This afforded a dark yellow solution, 647.08 grams, 850 ml. The sample was stored in 0° C. refrigerator. This solution was transferred to a dry, 1000 ml pear shaped flask. A majority of the solvent was removed on the rotary evaporator, at full vacuum, with a bath temperature of 30° C. This afforded a mobile, yellow oil, yield=307.92 g, 475 ml.

[2] = non-chain extended initiator, cyclohexane (background statement); cited from earlier work
[3] = Storage of initiator solutions, observation of precipitate or crystals; type: physicochemical
Method: The sample bottle was placed in a refrigerator at −1° C. for twenty-four hours.
(§1) The sample bottle was placed in a refrigerator at −1° C. for twenty-four hours. […] This solution was transferred to a dry, one-liter pear shaped flask. A majority of the solvent was removed on the rotary evaporator, at full vacuum, with a bath temperature of 40° C. This afforded a dark amber oil, yield=154.85 grams.
as §1, with “one liter” for “one-liter”, “yield=230.07” for “yield=154.85”
The sample bottle was placed in a refrigerator at −2° C. for forty-eight hours.
This solution was transferred to a dry, 500 ml., pear shaped flask. A majority of the solvent was removed on the rotary evaporator, at full vacuum, with a bath temperature of 40° C. This afforded a dark amber oil, yield=104.90 grams. Heptane, 6.11 grams, was added as a freezing point depressant.
A one-liter three-necked Morton flask was equipped with a mechanical stirrer, Claisen adapter with an ice condenser and gas inlet, and a 250 milliliter pressure-equalizing dropping funnel. This apparatus was dried in an oven overnight at 125° C., assembled hot, and allowed to cool to room temperature in a stream of argon. Lithium metal dispersion was washed free of mineral oil with hexane (2×100 ml), and pentane (1×100 ml). The resultant lithium dispersion was dried in a stream of argon, weighed (12.22 grams, 1.76 moles, 2.80 equivalents), and transferred to the reaction flask with 550 ml of cyclohexane. The mechanical stirrer was set at an agitation rate of 500 RPMs, and the reaction mixture was heated to 80° C. with a hearing mantle. The heat source was removed. The dropping funnel was charged with 94.90 grams (0.63 moles, 1.00 equivalent) of the precursor. The precursor was added dropwise, at an approximate rate of 1.59 ml/min. The reaction temperature was maintained at 70° C. with a dry ice/hexane bath. The total halide feed time was 66 minutes. The reaction mixture was allowed to stir for one hour post-feed and maintained at a temperature of 67.5° C. with a heating mantle. Then isoprene, 22.89 grams ([…], 0.50 equivalents of isoprene) was added at a feed rate of approximately 1.58 ml/min. The temperature was maintained at 62.5° C. during and after the feed. The reaction stirred for two hours before it was cooled to room temperature and filtered through a medium porosity pressure filter. The lithium muds were washed with cyclohexane (2×70 ml). The filtration took 15 minutes. This afforded a clear, light yellow solution, 513.07 g, 650 ml. The sample was stored in 0° C. refrigerator. This solution was transferred to a dry, 1000 ml pear-shaped flask. Some solvent was removed on the rotary evaporator, at full vacuum, with a bath temperature of 30° C. This afforded a light yellow solution, yield=386.01 g, 550 ml.
A one-liter three-necked Morton flask was equipped with a mechanical stirrer, Claisen adapter with an ice condenser and gas inlet, and a 250 milliliter pressure-equalizing dropping funnel. This apparatus was dried in an oven overnight at 125° C., assembled hot, and allowed to cool to room temperature in a stream of argon. Lithium metal dispersion was washed free of mineral oil with hexane (2×100 ml) and pentane (1×100 ml). The resultant lithium dispersion was dried in a stream of argon, weighed (13.90 grams, 2.00 moles, 2.80 equivalents), and transferred to the reaction flask with 400 ml of cyclohexane. The mechanical stirrer was set at an agitation rate of 500 RPMs, and the reaction mixture was heated to 80° C. with a heating mantle. The heat source was removed. The dropping funnel was charged with 107.82 grams (0.72 moles, 1.00 equivalent) of the precursor. The precursor was added dropwise, at an approximate rate of 0.71 ml/min. […]

[4] = 0° C., 0.00 isoprene equivalents
[5] = 0° C., 0.50 isoprene equivalents
[6] = 0° C., 0.75 isoprene equivalents
[7] = 0° C., 1.00 isoprene equivalents
[8] = 0° C., 2.00 isoprene equivalents

With `[Li][CH2]C(C)(C)CO[Si](C)(C)C` [2,2-dimethyl-3-trimethylsilyloxy-1-propyllithium] the “effect of chain extension on solubility” value ([1]; addition of less than one equivalent of the chain extension agent) was “increased the solubility”.

For `[Li][CH2]CCOC(C)(C)C` [3-(1,1-dimethylethoxy)-1-propyllithium], the “solubility, Moles Active/Kg.” value [1, 4] was 0.36 Moles Active/Kg, the “solubility, Moles Active/Liter” value [1, 4] was 0.30 Moles Active/Liter and the “solubility, Moles Active/Kg.” value [1, 5] was 1.35 Moles Active/Kg. The “solubility, Moles Active/Liter” value [1, 5] was 1.06 Moles Active/Liter, the “solubility, Moles Active/Kg.” value [1, 6] was 1.72 Moles Active/Kg and the “solubility, Moles Active/Liter” value [1, 6] was 1.33 Moles Active/Liter. For the same compound, the “solubility, Moles Active/Kg.” value [1, 7] was 1.84 Moles Active/Kg, the “solubility, Moles Active/Liter” value [1, 7] was 1.42 Moles Active/Liter and the “solubility, Moles Active/Kg.” value [1, 8] was 1.90 Moles Active/Kg. For the same compound, the “solubility, Moles Active/Liter” value [1, 8] was 1.46 Moles Active/Liter.

In the case of `[Li][CH2]CCOC(C)(C)CC` [3-(1,1-dimethylpropyloxy)-1-propyllithium], the “maximum solubility in cyclohexane” value [2] is given as 0.30 Molar.

In the case of `[Li][CH2]CCN1CCCCCC1` [3-(hexamethyleneimino)-1-propyllithium], the “solubility, Moles Active/Kg.” value ([1]; 0.00 isoprene equivalents) is reported as 0.20 Moles Active/Kg, the “solubility, Moles Active/Liter” value ([1]; 0.00 isoprene equivalents) is reported as 0.16 Moles Active/Liter and the “solubility, Moles Active/Kg.” value ([1]; 0.13 isoprene equivalents) is reported as 0.64 Moles Active/Kg. The “solubility, Moles Active/Liter” value ([1]; 0.13 isoprene equivalents) was 0.51 Moles Active/Liter, the “solubility, Moles Active/Kg.” value ([1]; 0.51 isoprene equivalents) was 2.08 Moles Active/Kg and the “solubility, Moles Active/Liter” value ([1]; 0.51 isoprene equivalents) was 1.62 Moles Active/Liter. The “solubility, Moles Active/Kg.” value ([1]; 0.90 isoprene equivalents) was 2.43 Moles Active/Kg, the “solubility, Moles Active/Liter” value ([1]; 0.90 isoprene equivalents) was 2.01 Moles Active/Liter and the “solubility, Moles Active/Kg.” value ([1]; 2.00 isoprene equivalents) was 2.75 Moles Active/Kg. The “solubility, Moles Active/Liter” value ([1]; 2.00 isoprene equivalents) was 2.28 Moles Active/Liter, the precipitation on storage ([3]; cyclohexane solution, 6.707 wt. % (0.4556 moles/kg), overnight at −5° C.) was “heavy white precipitate” and the “maximum solubility in cyclohexane” value [2] was 0.30 Molar.

In the case of `[Li][CH2]CCN1CCCC1` [3-(pyrrolidino)-1-propyllithium], the precipitation on storage ([3]; cyclohexane solution before chain extension, 14.63 wt. % (1.228 moles/kg), overnight at 20° C.) is reported as “heavy white precipitate had formed”.

For `[Li][CH2]CCN1CCCCCC1` [Example 1, 3-(Hexamethyleneimino)-1-Propyllithium], the precipitation on storage ([3]; cyclohexane solution as obtained, refrigerator at −1° C. for twenty-four hours) was “No solids had precipitated” and the precipitation on storage ([3]; cyclohexane solution as obtained, storage overnight at 15° C.) was “no solids had precipitated”.

For `[Li][CH2]CCN1CCCCCC1` [Example 2, 3-(Hexamethyleneimino)-1-Propyllithium], the precipitation on storage ([3]; concentrated solution, 30.65 wt. % (2.083 moles/kg), −1° C. for one week) was “no precipitate was observed”.

In the case of `[Li][CH2]CCN1CCCCCC1` [Example 3, 3-(Hexamethyleneimino)-1-Propyllithium], the precipitation on storage ([3]; concentrated solution, 35.74 wt. % (2.428 moles/kg), −1° C. for ten days) is reported as “no precipitate was observed”.

With `[Li][CH2]CCN1CCCC1` [Example 4, 3-(Pyrrolidino)-1-Propyllithium] the precipitation on storage ([3]; cyclohexane solution diluted with heptane, 9.53 wt. %, −2° C. for forty-eight hours) was “No solids had precipitated”.

With `[Li][CH2]CCN1CCCC1` [Example 5, 3-(Pyrrolidino)-1-Propyllithium] the precipitation on storage ([3]; concentrated solution with heptane, 24.14 wt %, −2° C. for four days) was “no solids had precipitated” and the precipitation on storage ([3]; cyclohexane solution, 14.02 wt. %, overnight at −2° C.) was “no solids had precipitated”.

With `[Li][CH2]CCOC(C)(C)C` [Example 7, 3-(1,1-Dimethylethoxy)-1-propyllithium] the crystals on storage ([3]; cyclohexane solution, 0° C. refrigerator, after one day) was “Crystals were present”.

In the case of `[Li][CH2]CCOC(C)(C)C` [Example 10, 3-(1,1-Dimethylethoxy)-1-propyllithium], the crystals on storage ([3]; concentrated cyclohexane solution, 49.4 wt. % (1.91 mole/kg), storage in 0° C. refrigerator, maximum solubility) is reported as “crystals were present”.
